# Assays:
# Assay in all cases: radiometric filter-binding kinase assay
# MELK (human) = MELK (human) (UniProt Q14680)
# CSNK1D (human) = CSNK1D (human) (UniProt P48730)
# MAPK9 (human) = MAPK9 (human) (UniProt P45984)
# MAPK10 (human) = MAPK10 (human) (UniProt P53779)
# PAK6 (human) = PAK6 (human) (UniProt Q9NQU5)
# PRKCZ (human) = PRKCZ (human) (UniProt Q05513)
# [1] = system: AKT2 (human), P31751 [S474D]
# SRC (human) = SRC (human) (UniProt P12931)
# AURKB (human) = AURKB (human) (UniProt Q96GD4)
# CHEK1 (human) = CHEK1 (human) (UniProt O14757)
# Sequence of CHEK1 (human) (O14757 whole entry, looked up): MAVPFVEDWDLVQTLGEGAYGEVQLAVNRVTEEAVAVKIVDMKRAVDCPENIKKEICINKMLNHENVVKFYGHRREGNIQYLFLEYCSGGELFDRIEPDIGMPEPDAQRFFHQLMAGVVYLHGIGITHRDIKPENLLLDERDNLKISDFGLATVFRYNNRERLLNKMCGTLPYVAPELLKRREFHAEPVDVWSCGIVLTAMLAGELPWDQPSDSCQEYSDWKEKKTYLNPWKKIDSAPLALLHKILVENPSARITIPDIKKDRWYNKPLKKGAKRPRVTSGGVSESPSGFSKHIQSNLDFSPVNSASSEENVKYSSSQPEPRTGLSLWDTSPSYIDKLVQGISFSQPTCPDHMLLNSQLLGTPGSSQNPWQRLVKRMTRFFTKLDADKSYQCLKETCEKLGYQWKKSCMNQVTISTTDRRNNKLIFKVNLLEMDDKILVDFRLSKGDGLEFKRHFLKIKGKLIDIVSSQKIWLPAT
# PKN2 (human) = PKN2 (human) (UniProt Q16513)
# EEF2K (human) = EEF2K (human) (UniProt O00418)
# MYLK (human) = MYLK (human) (UniProt Q15746)
# Sequence of MYLK (human) (Q15746 whole entry, looked up): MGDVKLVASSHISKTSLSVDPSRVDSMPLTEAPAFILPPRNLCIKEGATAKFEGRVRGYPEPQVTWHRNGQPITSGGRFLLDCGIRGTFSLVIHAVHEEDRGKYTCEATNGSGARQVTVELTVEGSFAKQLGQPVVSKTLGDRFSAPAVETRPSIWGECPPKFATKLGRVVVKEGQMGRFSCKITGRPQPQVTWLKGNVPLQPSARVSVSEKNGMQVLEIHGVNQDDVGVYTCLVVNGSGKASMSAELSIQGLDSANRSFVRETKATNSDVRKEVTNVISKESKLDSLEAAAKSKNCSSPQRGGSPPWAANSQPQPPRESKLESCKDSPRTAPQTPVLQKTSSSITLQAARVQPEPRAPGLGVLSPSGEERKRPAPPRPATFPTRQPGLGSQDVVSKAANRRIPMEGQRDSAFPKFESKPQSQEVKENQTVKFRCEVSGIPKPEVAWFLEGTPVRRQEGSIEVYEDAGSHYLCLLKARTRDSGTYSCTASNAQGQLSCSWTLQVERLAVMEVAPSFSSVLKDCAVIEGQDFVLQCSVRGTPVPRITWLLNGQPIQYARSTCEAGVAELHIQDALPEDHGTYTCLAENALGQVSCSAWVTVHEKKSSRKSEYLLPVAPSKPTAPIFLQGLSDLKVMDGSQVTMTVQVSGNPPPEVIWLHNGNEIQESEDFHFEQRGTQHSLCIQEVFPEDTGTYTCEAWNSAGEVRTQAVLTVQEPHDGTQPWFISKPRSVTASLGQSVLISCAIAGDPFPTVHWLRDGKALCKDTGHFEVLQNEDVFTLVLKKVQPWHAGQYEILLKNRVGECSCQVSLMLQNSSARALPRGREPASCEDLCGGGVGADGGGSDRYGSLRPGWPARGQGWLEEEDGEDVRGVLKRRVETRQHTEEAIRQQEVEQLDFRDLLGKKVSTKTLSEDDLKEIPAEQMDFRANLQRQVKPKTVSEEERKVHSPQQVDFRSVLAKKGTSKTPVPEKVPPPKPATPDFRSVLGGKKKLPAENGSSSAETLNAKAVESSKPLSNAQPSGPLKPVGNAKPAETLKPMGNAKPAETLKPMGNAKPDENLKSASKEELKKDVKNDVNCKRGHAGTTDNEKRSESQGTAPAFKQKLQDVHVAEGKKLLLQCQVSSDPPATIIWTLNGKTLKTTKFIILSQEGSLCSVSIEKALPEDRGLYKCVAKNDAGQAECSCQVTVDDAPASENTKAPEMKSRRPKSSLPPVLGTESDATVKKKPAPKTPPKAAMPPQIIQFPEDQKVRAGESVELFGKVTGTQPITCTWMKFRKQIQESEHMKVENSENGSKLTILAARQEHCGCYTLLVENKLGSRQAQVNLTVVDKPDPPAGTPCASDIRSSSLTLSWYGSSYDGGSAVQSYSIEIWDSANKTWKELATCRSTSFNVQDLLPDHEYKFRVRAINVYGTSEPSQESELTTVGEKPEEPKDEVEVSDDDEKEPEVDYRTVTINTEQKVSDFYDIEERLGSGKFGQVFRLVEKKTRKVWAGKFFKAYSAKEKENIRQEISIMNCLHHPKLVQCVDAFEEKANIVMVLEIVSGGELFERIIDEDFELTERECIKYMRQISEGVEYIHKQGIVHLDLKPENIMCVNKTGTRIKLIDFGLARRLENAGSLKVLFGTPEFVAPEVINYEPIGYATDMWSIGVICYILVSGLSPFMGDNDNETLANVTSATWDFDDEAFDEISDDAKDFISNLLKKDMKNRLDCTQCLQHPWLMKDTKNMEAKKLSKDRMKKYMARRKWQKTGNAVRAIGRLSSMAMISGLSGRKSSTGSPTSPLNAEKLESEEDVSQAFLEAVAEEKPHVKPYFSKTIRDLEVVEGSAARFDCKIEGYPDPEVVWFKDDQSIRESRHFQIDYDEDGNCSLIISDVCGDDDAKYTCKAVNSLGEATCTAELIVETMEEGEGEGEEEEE
# GSK3B (human) = GSK3B (human) (UniProt P49841)
# Sequence of GSK3B (human) (P49841 whole entry, looked up): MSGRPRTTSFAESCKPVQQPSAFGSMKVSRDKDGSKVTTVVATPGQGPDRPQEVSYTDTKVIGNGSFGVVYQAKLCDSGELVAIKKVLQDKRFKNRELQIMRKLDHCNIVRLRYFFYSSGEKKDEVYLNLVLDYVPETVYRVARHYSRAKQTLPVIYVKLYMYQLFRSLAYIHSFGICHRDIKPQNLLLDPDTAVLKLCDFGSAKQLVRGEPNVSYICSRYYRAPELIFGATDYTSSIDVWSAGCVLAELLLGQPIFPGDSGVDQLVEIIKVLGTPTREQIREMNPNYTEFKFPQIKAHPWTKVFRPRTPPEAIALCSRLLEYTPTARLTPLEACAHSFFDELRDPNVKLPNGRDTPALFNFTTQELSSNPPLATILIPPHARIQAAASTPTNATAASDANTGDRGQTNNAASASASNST
# MAPK1 (human) = MAPK1 (human) (UniProt P28482)
# HIPK2 (human) = HIPK2 (human) (UniProt Q9H2X6)
# Sequence of HIPK2 (human) (Q9H2X6 whole entry, looked up): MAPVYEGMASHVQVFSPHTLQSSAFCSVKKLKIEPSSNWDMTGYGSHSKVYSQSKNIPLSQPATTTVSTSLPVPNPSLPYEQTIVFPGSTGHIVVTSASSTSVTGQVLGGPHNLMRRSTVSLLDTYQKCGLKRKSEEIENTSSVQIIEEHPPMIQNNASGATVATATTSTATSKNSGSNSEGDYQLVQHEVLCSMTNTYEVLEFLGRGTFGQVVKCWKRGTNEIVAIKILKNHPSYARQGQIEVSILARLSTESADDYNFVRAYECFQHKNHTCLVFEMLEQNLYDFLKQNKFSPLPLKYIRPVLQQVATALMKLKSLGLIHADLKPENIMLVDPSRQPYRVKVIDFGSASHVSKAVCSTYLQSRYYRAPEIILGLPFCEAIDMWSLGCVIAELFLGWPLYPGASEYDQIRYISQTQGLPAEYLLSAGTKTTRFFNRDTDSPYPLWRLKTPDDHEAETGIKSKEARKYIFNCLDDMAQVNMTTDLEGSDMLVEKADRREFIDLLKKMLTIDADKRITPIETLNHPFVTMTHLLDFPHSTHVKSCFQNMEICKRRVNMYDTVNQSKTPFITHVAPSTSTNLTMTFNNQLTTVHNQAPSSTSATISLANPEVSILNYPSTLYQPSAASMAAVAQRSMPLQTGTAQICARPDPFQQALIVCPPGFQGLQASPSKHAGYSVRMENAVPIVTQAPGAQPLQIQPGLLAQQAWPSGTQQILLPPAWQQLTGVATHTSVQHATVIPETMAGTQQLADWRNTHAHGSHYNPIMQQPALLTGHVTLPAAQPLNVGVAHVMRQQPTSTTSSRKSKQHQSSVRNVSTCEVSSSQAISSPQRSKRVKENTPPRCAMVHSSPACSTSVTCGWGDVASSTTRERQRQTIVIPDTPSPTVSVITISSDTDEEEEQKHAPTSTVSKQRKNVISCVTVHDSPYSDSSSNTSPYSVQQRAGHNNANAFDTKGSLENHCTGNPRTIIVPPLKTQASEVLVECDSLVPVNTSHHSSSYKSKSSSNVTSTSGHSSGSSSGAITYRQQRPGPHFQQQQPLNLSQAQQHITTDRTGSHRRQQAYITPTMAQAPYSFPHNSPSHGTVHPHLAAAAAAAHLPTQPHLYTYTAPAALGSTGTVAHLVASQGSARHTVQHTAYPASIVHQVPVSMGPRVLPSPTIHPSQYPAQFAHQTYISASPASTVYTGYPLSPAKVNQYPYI
# MAPK13 (human) = MAPK13 (human) (UniProt O15264)
# Sequence of MAPK13 (human) (O15264 whole entry, looked up): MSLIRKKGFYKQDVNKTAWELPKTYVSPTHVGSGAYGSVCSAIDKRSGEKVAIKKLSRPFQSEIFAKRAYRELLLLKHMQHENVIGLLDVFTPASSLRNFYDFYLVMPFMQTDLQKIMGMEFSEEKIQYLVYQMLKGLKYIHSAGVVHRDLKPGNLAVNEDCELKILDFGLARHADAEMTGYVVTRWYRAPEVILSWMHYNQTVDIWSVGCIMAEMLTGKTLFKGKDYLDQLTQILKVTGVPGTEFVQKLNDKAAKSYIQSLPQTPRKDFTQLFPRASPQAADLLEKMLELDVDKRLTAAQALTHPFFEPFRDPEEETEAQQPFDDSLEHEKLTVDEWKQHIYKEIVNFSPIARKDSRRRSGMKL
# YES1 (human) = YES1 (human) (UniProt P07947)
# SYK (human) = SYK (human) (UniProt P43405)
# FLT1 (human) = FLT1 (human) (UniProt P17948)
# IGF1R (human) = IGF1R (human) (UniProt P08069)
# FGFR1 (human) = FGFR1 (human) (UniProt P11362)
# Sequence of SRC (human) (P12931 whole entry, looked up): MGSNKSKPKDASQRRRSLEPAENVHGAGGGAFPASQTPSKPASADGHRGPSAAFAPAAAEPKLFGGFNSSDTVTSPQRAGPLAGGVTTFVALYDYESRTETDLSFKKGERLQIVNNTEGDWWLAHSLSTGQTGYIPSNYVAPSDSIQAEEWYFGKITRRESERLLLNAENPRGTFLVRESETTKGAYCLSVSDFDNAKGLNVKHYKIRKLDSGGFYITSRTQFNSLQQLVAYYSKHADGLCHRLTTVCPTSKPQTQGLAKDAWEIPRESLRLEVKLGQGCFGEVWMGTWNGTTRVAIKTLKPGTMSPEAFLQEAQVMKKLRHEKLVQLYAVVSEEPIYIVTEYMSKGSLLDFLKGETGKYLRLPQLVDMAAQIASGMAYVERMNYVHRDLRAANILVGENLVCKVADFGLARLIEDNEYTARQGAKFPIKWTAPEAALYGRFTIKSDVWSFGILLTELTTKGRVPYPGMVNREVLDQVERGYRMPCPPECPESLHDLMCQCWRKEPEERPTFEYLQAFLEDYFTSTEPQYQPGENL
smiles,measurement,setting,value
COc1ccc2c(c1)c1c3c(c4c5ccccc5n(C)c4c1n2CC(O)CN(C)C)C(=O)NC3=O (stereo unspecified),residual activity,MELK (human); compound 0.1 µM,72%
same,residual activity,MELK (human); compound 1.0 µM,20%
same,residual activity,MELK (human); compound 10.0 µM,8%
same,residual activity,CSNK1D (human); compound 0.1 µM,103%
same,residual activity,CSNK1D (human); compound 1.0 µM,83%
same,residual activity,CSNK1D (human); compound 10.0 µM,68%
same,residual activity,MAPK9 (human); compound 0.1 µM,92%
same,residual activity,MAPK9 (human); compound 1.0 µM,63%
same,residual activity,MAPK9 (human); compound 10.0 µM,35%
same,residual activity,MAPK10 (human); compound 0.1 µM,90%
same,residual activity,MAPK10 (human); compound 1.0 µM,97%
same,residual activity,MAPK10 (human); compound 10.0 µM,87%
same,residual activity,PAK6 (human); compound 0.1 µM,107%
same,residual activity,PAK6 (human); compound 1.0 µM,82%
same,residual activity,PAK6 (human); compound 10.0 µM,71%
same,residual activity,PRKCZ (human); compound 0.1 µM,118%
same,residual activity,PRKCZ (human); compound 1.0 µM,74%
same,residual activity,PRKCZ (human); compound 10.0 µM,62%
same,residual activity,[1]; compound 0.1 µM,80%
same,residual activity,[1]; compound 1.0 µM,44%
same,residual activity,[1]; compound 10.0 µM,13%
same,residual activity,SRC (human); compound 0.1 µM,104%
same,residual activity,SRC (human); compound 1.0 µM,95%
same,residual activity,SRC (human); compound 10.0 µM,63%
same,residual activity,AURKB (human); compound 0.1 µM,17%
same,residual activity,AURKB (human); compound 1.0 µM,14%
same,residual activity,AURKB (human); compound 10.0 µM,12%
same,residual activity,CHEK1 (human); compound 0.1 µM,56%
same,residual activity,CHEK1 (human); compound 1.0 µM,13%
same,residual activity,CHEK1 (human); compound 10.0 µM,4%
same,residual activity,PKN2 (human); compound 0.1 µM,63%
same,residual activity,PKN2 (human); compound 1.0 µM,13%
same,residual activity,PKN2 (human); compound 10.0 µM,4%
same,residual activity,EEF2K (human); compound 0.1 µM,106%
same,residual activity,EEF2K (human); compound 1.0 µM,106%
same,residual activity,EEF2K (human); compound 10.0 µM,108%
same,residual activity,MYLK (human); compound 0.1 µM,15%
same,residual activity,MYLK (human); compound 1.0 µM,6%
same,residual activity,MYLK (human); compound 10.0 µM,3%
same,residual activity,GSK3B (human); compound 0.1 µM,67%
same,residual activity,GSK3B (human); compound 1.0 µM,20%
same,residual activity,GSK3B (human); compound 10.0 µM,5%
same,residual activity,MAPK1 (human); compound 0.1 µM,114%
same,residual activity,MAPK1 (human); compound 1.0 µM,110%
same,residual activity,MAPK1 (human); compound 10.0 µM,106%
same,residual activity,HIPK2 (human); compound 0.1 µM,97%
same,residual activity,HIPK2 (human); compound 1.0 µM,55%
same,residual activity,HIPK2 (human); compound 10.0 µM,24%
same,residual activity,MAPK13 (human); compound 0.1 µM,89%
same,residual activity,MAPK13 (human); compound 1.0 µM,65%
same,residual activity,MAPK13 (human); compound 10.0 µM,37%
Cn1c(=O)c2c(ncn2C)n(C)c1=O,residual activity,MELK (human); compound 0.1 µM,98%
same,residual activity,MELK (human); compound 1.0 µM,90%
same,residual activity,CSNK1D (human); compound 0.1 µM,118%
same,residual activity,CSNK1D (human); compound 1.0 µM,120%
same,residual activity,MAPK9 (human); compound 0.1 µM,94%
same,residual activity,MAPK9 (human); compound 1.0 µM,100%
same,residual activity,PAK6 (human); compound 0.1 µM,97%
same,residual activity,PAK6 (human); compound 1.0 µM,101%
same,residual activity,PRKCZ (human); compound 0.1 µM,95%
same,residual activity,PRKCZ (human); compound 1.0 µM,88%
same,residual activity,[1]; compound 0.1 µM,81%
same,residual activity,[1]; compound 1.0 µM,84%
same,residual activity,SRC (human); compound 0.1 µM,96%
same,residual activity,SRC (human); compound 1.0 µM,88%
same,residual activity,YES1 (human); compound 0.1 µM,85%
same,residual activity,YES1 (human); compound 1.0 µM,85%
same,residual activity,AURKB (human); compound 0.1 µM,91%
same,residual activity,AURKB (human); compound 1.0 µM,83%
same,residual activity,CHEK1 (human); compound 0.1 µM,88%
same,residual activity,CHEK1 (human); compound 1.0 µM,96%
same,residual activity,SYK (human); compound 0.1 µM,92%
same,residual activity,SYK (human); compound 1.0 µM,86%
same,residual activity,PKN2 (human); compound 0.1 µM,89%
same,residual activity,EEF2K (human); compound 0.1 µM,88%
same,residual activity,EEF2K (human); compound 1.0 µM,92%
same,residual activity,FLT1 (human); compound 0.1 µM,80%
same,residual activity,FLT1 (human); compound 1.0 µM,84%
same,residual activity,MYLK (human); compound 0.1 µM,90%
same,residual activity,MYLK (human); compound 1.0 µM,91%
same,residual activity,GSK3B (human); compound 0.1 µM,102%
same,residual activity,GSK3B (human); compound 1.0 µM,101%
same,residual activity,MAPK1 (human); compound 0.1 µM,96%
same,residual activity,MAPK1 (human); compound 1.0 µM,101%
same,residual activity,IGF1R (human); compound 0.1 µM,86%
same,residual activity,IGF1R (human); compound 1.0 µM,94%
same,residual activity,HIPK2 (human); compound 0.1 µM,103%
same,residual activity,HIPK2 (human); compound 1.0 µM,112%
same,residual activity,MAPK13 (human); compound 0.1 µM,88%
same,residual activity,MAPK13 (human); compound 1.0 µM,88%
same,residual activity,FGFR1 (human); compound 0.1 µM,118%
same,residual activity,FGFR1 (human); compound 1.0 µM,112%
Cc1cccc(Nc2nn(C)c3ncnc(N)c23)c1,residual activity,MELK (human); compound 1.0 µM,108%
same,residual activity,MELK (human); compound 10.0 µM,118%
same,residual activity,CSNK1D (human); compound 1.0 µM,77%
same,residual activity,CSNK1D (human); compound 10.0 µM,87%
same,residual activity,MAPK9 (human); compound 1.0 µM,104%
same,residual activity,MAPK9 (human); compound 10.0 µM,117%
same,residual activity,MAPK10 (human); compound 1.0 µM,101%
same,residual activity,MAPK10 (human); compound 10.0 µM,102%
same,residual activity,PAK6 (human); compound 1.0 µM,103%
same,residual activity,PAK6 (human); compound 10.0 µM,102%
same,residual activity,PRKCZ (human); compound 1.0 µM,89%
same,residual activity,PRKCZ (human); compound 10.0 µM,112%
same,residual activity,[1]; compound 1.0 µM,95%
same,residual activity,[1]; compound 10.0 µM,100%
same,residual activity,SRC (human); compound 1.0 µM,97%
same,residual activity,SRC (human); compound 10.0 µM,100%
same,residual activity,AURKB (human); compound 1.0 µM,96%
same,residual activity,AURKB (human); compound 10.0 µM,87%
same,residual activity,CHEK1 (human); compound 1.0 µM,109%
same,residual activity,CHEK1 (human); compound 10.0 µM,115%
same,residual activity,PKN2 (human); compound 1.0 µM,119%
same,residual activity,PKN2 (human); compound 10.0 µM,110%
same,residual activity,EEF2K (human); compound 1.0 µM,97%
same,residual activity,EEF2K (human); compound 10.0 µM,96%
same,residual activity,MYLK (human); compound 1.0 µM,93%
same,residual activity,MYLK (human); compound 10.0 µM,87%
same,residual activity,GSK3B (human); compound 1.0 µM,114%
same,residual activity,GSK3B (human); compound 10.0 µM,133%
same,residual activity,MAPK1 (human); compound 1.0 µM,116%
same,residual activity,MAPK1 (human); compound 10.0 µM,111%
same,residual activity,HIPK2 (human); compound 1.0 µM,124%
same,residual activity,HIPK2 (human); compound 10.0 µM,125%
same,residual activity,MAPK13 (human); compound 1.0 µM,101%
same,residual activity,MAPK13 (human); compound 10.0 µM,105%

# — the kinase profiling compilation of Christmann-Franck et al. (2016)
